From patent US10188603B2, “Topical systems and methods for treating sexual dysfunction” (priority 2013, dated 2019)

Assays:
[1] = tested on: micro-capillary blood flow to skin; assay: Laser Doppler capillary blood flow in humans, 10,000 ppm NO in closed chamber (Example 5); format: in vivo, human; settings: applied to the skin at 1/10% in alcohol
From the text: The formulation used in these studies contained nitric oxide dispersed in a lipid matrix. […] Nitric oxide is a very rapid acting molecule, and these studies used a system that employed laser Doppler with a covered chamber. The formulation was placed into the chamber and then attached to the skin by an adhesive layer on the covering. This provided a stable measuring device as determined by multiple normal evaluations of the capillary blood flow without treatment of nitric oxide.
A known positive control, methyl nicotinate, was applied to the skin at a concentration of 1/10% in alcohol. […] The vascular dynamics are such that when the blood vessels dilate physical parameters follow Bernoulli's law. This states that as one increases the diameter of a tube containing a liquid to flow will increase but the pressure and the speed of the liquid will decrease. The laser Doppler device accurately measured these parameters.
The test product was labeled as 10,000 ppm NO (nitric oxide). The study participants had 100 mg of the test product applied in a closed Hilltop chamber on the forearm. […]
A Moor Instruments DRT4 Laser Doppler Blood Flow Monitor (Devon, England) was used in these studies. The laser Doppler technique measured blood flow in the microcapillaries of the skin that are close to the skin surface and the blood flow in underlying arterioles and venules that help to regulate skin temperature. […]

[2] = tested on: capillary circulation of the skin; assay: Laser Doppler circulation in five human subjects (Example 8); format: in vivo; settings: positive control formulation containing 0.1% methyl nicotinate
From the text: This example illustrates delivery of nitric oxide formulations to five human subjects, using procedures and formulations similar to those discussed in Example 5. Each person served as their own control for the testing. A Moor Instruments Laser Doppler was used to determine circulation. […] The formulations used produce positive, almost immediate results when applied to the skin which, in these studies, was manifested by vasodilatation of the cutaneous vascular system.
For each subject, the following creams were applied: a negative control formulation (containing no NO), 0.010 gram of a 10,000 ppm NO formulation, 0.020 gram of a 10,000 ppm NO formulation, and a positive control formulation containing 0.1% methyl nicotinate. The formulations were prepared using procedures similar to those discussed in Example 1.

COC(=O)c1cccnc1 [methyl nicotinate]
laser Doppler response of positive control [1]: rapid response typical of the vasodilator | vasodilatation (laser Doppler) [2]: vasodilatation was observed
